Measurements as given in ChEMBL document CHEMBL1149710, “Two new alkaloids and active anti-hepatitis B virus constituents from Hypserpa nitida” (Bioorg Med Chem Lett, 2007).

Assays:
[1] = Selectivity index, ratio of CC50 for human Hep G2.2.15 cells to IC50 for HBV e antigen secretion in HBV transfected Hep G2.2.15 cells; type: functional
[2] = Cytotoxicity against human Hep G2.2.15 cells; type: functional; details: HepG2 2.2.15
[3] = system: Hepatitis B virus; assay: Antiviral activity against HBV transfected Hep G2.2.15 cells assessed as inhibition of surface antigen HBsAg secretion; type: functional, organism-based; details: HepG2 2.2.15
[4] = system: Hepatitis B virus; assay: Antiviral activity against HBV transfected Hep G2.2.15 cells assessed as inhibition of e antigen HBsAg secretion; type: functional, organism-based; details: HepG2 2.2.15
[5] = Selectivity index, ratio of CC50 for human Hep G2.2.15 cells to IC50 for surface antigen HBsAg secretion in HBV transfected Hep G2.2.15 cells; type: functional

Structure (SMILES)	IC50 [3] [mM]	IC50 [4] [mM]	Ratio CC50/IC50 [1]	CC50 [2] [mM]	Ratio CC50/IC50 [5]
COc1ccc(C[C@H]2c3cc(O)c(OC)cc3CCN2C)cc1O [(S)-RETICULINE]	2.14	> 2.99	<1	1.91	<1
COC1=CC(=O)[C@@]2([C@@H]1O)[C@@H](Cl)C[C@]13NCC[C@]21CC(=O)C(OC)=C3OC [ACUTUMIDINE]	2.02	> 2.89	–	> 2.89	>1.31
COC1=CC(=O)[C@@]2([C@@H]1O)[C@@H](Cl)C[C@@]13C(OC)=C(OC)C(=O)C[C@@]21CCN3C [ACUTUMINE]	> 2.99	> 2.98	–	> 2.99	–
COC1=CC(=O)[C@]2([C@@H](Cl)C[C@]34NCC[C@]23CC(=O)C(OC)=C4OC)[C@H]1O [DAURICUMIDINE]	0.45	> 3.85	<1	1.86	4.13
COC1=CC(=O)[C@]2([C@@H](Cl)C[C@@]34C(OC)=C(OC)C(=O)C[C@@]23CCN4C)[C@H]1O [DAURICUMINE]	1.31	> 3.29	<1	2.19	1.67
COC1=CC(=O)[C@]2(CC[C@@]34C(OC)=C(OC)C(=O)C[C@]32CCN4C)[C@@H]1O [DECHLOROACUTUMINE]	> 2.93	> 2.93	–	2.93	–
COc1c(O)cc2c(c1OC)C=[N+](C)CC2 [PHENOLBETAIN]	2.37	> 4.52	<1	2.18	<1

Second part, led by results:

IC50 [3] [mM]	IC50 [4] [mM]	Structure (SMILES)	Ratio CC50/IC50 [1]	CC50 [2] [mM]	Ratio CC50/IC50 [5]
0.008	3.69	COc1cc2c3c(c1O)C1(C=CC(=O)C=C1)CC3N(C)CC2 (centres undefined) [GLAZIOVINE]	<1	0.007	<1
1.42	> 2.87	CCN(CC)C1=CC(=O)[C@]2([C@@H](Cl)C[C@@]34C(OC)=C(OC)C(=O)C[C@@]23CCN4C)[C@H]1O [HYPSERPANINE A]	<1	2.23	1.57
> 3.61	> 3.61	COc1ccc2c3c1-c1c(ccc(O)c1O)C[C@@H]3[N+](C)(C)CC2 [HYPSERPANINE B]	–	> 3.61	–
11.7	25.9	Nc1ccn([C@@H]2CS[C@H](CO)O2)c(=O)n1 [LAMIVUDINE]	1.16	30	2.56
> 3.68	> 3.68	COc1cc2c(cc1O)C[C@H]1c3c(cc(OC)c(O)c3-2)CC[N+]1(C)C [LAURIFOLINE]	–	> 3.68	–
> 4.11	> 4.11	COc1ccc2c(c1O)-c1c(O)c(OC)cc3c1[C@H](C2)[N+](C)(C)CC3 [MAGNOFLORINE]	–	> 4.11	–
0.042	> 4.18	COc1cc2c3c(c1OC)C1(C=CC(=O)C=C1)C[C@H]3N(C)CC2 [PRONUCIFERINE]	<1	0.05	1.19
